According to PubChem BioAssay AID1996:
Values after ≈ are worked out from the molar mass of the structure shown.

details: buffer; pH 7.4; 200.0 µM

Structure (SMILES) | solubility kinetic [µg/mL]
Cc1ccc(-n2c(C)cc(C(=O)CN3CCOCC3)c2C)cc1C | > 49
Nc1cc(=O)[nH]c(SCC(=O)Nc2cc(S(=O)(=O)N3CCCCCC3)ccc2Cl)n1 | 5.4 (≈ 11.4 µM)
CCC(C)NC(=O)c1cc2c(=O)n3cccc(C)c3nc2s1 (stereo not drawn) | 46 (≈ 146 µM)
CCOC(=O)C1CCCN(C(=O)c2cc3ccc(OC)cc3[nH]2)C1 (stereo not drawn) | > 49.6
NC(=O)C1CCN(C(=O)COc2ccc3c4c(c(=O)oc3c2)CCCC4)CC1 | > 57.7
CN(CC(=O)NC1CC1)S(=O)(=O)c1cc(Cl)ccc1Cl | > 50.6
CSc1nc2c(cc1C#N)CCC2 | 5.1 (≈ 26.8 µM)
OC(COc1ccc(Cl)cc1)CN1CCN(c2ccccn2)CC1 (stereo not drawn) | 33.8 (≈ 97.2 µM)
COc1ccc(NC(=O)COc2ccc(/C=N/O)cc2OC)cc1 | > 49.6
Cc1ccc(C(=O)Nc2ccccc2N2CCCC2)cc1 | 31.4 (≈ 112 µM)
CC1CCCC(NC(=O)COC(=O)c2ccc(Br)o2)C1C (stereo not drawn) | 8.2 (≈ 22.9 µM)
Cc1cc(C)cc(NC(=O)NCC(O)COc2ccc([N+](=O)[O-])cc2)c1 (stereo not drawn) | 6.1 (≈ 17 µM)
Cc1ccccc1NC(=O)Cc1nc(COC(=O)c2ccc(NC(N)=O)cc2)cs1 | 17.6 (≈ 41.5 µM)
COc1ccc(F)cc1S(=O)(=O)Nc1ccncc1 | > 42.3
Cc1ccc(S(=O)(=O)NC(=O)c2ccc(F)cc2)c(C)c1 | > 46.1
CN1CCN(C(=O)/C(=C/c2ccc(F)cc2)NC(=O)c2ccccc2)CC1 | 54.5 (≈ 148 µM)
COc1cccc(CN2C(=O)c3ccccc3S2(=O)=O)c1 | 30 (≈ 98.9 µM)
O=C(NC1=NCCS1)c1ccc(C(F)(F)F)cc1 | 6.1 (≈ 22.2 µM)
COc1cccc(NC(=O)N2CCCCCC2)c1 | > 37.2
Oc1cccc(/C=C/c2ccc3cccc(O)c3n2)c1 | 2.3 (≈ 8.74 µM)

Structure (SMILES) | solubility kinetic [µg/mL]
Cc1ccc(NC(=O)CN2CCN(C(=O)c3ccco3)CC2)cc1 | 47.8 (≈ 146 µM)
Cc1cc(C)nc(N(C#N)Cc2ccc(Cl)cc2)n1 | 21.7 (≈ 79.6 µM)
CC(C)c1ccc(NC2CCCN(C(=O)c3ccoc3)C2)cc1 (stereo not drawn) | > 46.9
CC(CCc1ccccc1)NC(=O)COC(=O)c1cccs1 (stereo not drawn) | > 47.6
O=C(COC(=O)c1ccco1)Nc1ccc2[nH]c(=O)[nH]c2c1 | 9.3 (≈ 30.9 µM)
CC(=O)c1c(C)[nH]c(C(=O)N2CCCC(C)C2)c1C (stereo not drawn) | > 39.4
COC(=O)c1sccc1NC(=O)Nc1ccc(C)c(C)c1 | 20.7 (≈ 68 µM)
Cc1cccc(C)c1OCCCn1ccnc1 | 20.1 (≈ 87.3 µM)
C=CCNC(=S)N/N=C(\C)c1cccc(NC(C)=O)c1 | > 43.6
CSc1nc2c(C)c(C)c(C)c(C)c2[nH]1 | 3.2 (≈ 14.5 µM)
CCC(=O)c1ccc(Oc2nc3c(c(=O)n(C)c(=O)n3C)n2CC)cc1 | 19.6 (≈ 55 µM)
CCOc1ccc(CSC(=N)N)cc1Cl.Cl | > 42.2
CCOC(=O)c1ncccc1NC(=O)CC(=O)Nc1cccnc1C(=O)OCC | 58.2 (≈ 145 µM)
COc1ccccc1NS(=O)(=O)c1cccc(NC(=O)c2cncc(Br)c2)c1 | 6.4 (≈ 13.8 µM)
CC(C)CC1CCCCC1OC(=O)CN1CCCCC1 (stereo not drawn) | 3.7 (≈ 13.1 µM)
COc1ccc(CNC(=O)CCC(=O)Nc2cccnc2)cc1 | 42.3 (≈ 135 µM)
Clc1ccc2c(c1)CCc1cccnc1C2=C1CCNCC1 | 21.6 (≈ 69.5 µM)
Cn1cncc1COC(=O)c1ccc(Cl)cc1 | > 37.6
Cc1ccc(NC(c2ccccc2)c2nc3ccccc3[nH]c2=O)cc1 (stereo not drawn) | 0.5 (≈ 1.46 µM)
COc1ccccc1C(=O)NCCOc1ccc(C(C)(C)C)cc1 | 2.7 (≈ 8.25 µM)

Structure (SMILES) | solubility kinetic [µg/mL]
N#Cc1ccccc1NC(=O)COC(=O)CCc1ccccc1 | > 46.3
CCCC(=O)OCC(=O)NC1CCCc2ccccc21 (stereo not drawn) | > 41.3
COc1cc(NC(=O)C(=O)N2CCN(C)CC2)c(OC)cc1Cl | > 51.3
O=C(NCC(c1ccco1)N1CCCCC1)c1cccnc1 (stereo not drawn) | > 44.9
COc1ccc(NC(=S)NC(=O)/C=C/c2ccco2)cc1 | 1.2 (≈ 3.97 µM)
CC1CN(C(=O)c2ccc(Oc3ccccc3)cc2)CC(C)O1 (stereo not drawn) | > 46.7
CCCOc1cccc(C(=O)NCCNC(=O)c2cnccn2)c1 | 48 (≈ 146 µM)
COc1cccc(C2=NOC(C(=O)NCc3cccnc3)C2)c1 (stereo not drawn) | > 46.7
COC(=O)CNC(=O)c1cc(-c2ccncc2)nc2ccccc12 | > 48.2
Cc1ccc(NC(=O)c2ccc(Cl)cc2Cl)cc1O | 12 (≈ 40.5 µM)
CN(C(=O)c1ccco1)c1nc(-c2ccc(F)cc2)cs1 | < 0.3
C=CCn1c(O)c(C(C)=NC(C)c2ccccc2)c(=O)[nH]c1=O (stereo not drawn) | > 47
Cc1ccc(C(=O)Cn2cc([N+](=O)[O-])nc2C)cc1 | 11.7 (≈ 45.1 µM)
O=C(Nc1nc2ccccc2[nH]1)c1cccc(Br)c1 | 0.6 (≈ 1.9 µM)
O=C(COC(=O)c1cccs1)Nc1ccc(Cl)cn1 | 3.1 (≈ 10.4 µM)
O=C(Nc1ccc(C(=O)OC2CCCCC2)cc1)c1ccncc1 | 2.8 (≈ 8.63 µM)
COc1ccccc1C(=O)NCCNc1ccc([N+](=O)[O-])cc1Cl | 0.7 (≈ 2 µM)
CC(=O)Nc1ccccc1C(=O)C(=O)Nc1cccc(Br)c1 | 29.1 (≈ 80.6 µM)
